From patent publication US10870647B2, “Imidazopyridine derivative, method for preparing same, and pharmaceutical composition containing same as active ingredient for preventing or treating cancer” (DAEGU-GYEONGBUK MEDICAL INNOVATION FOUNDATION, priority 2016, dated 2020) come the findings set out here.

SMILES strings stand for the structures.

Assay in all cases: Kinase selectivity, scanMAX Kinase assay panel (DiscoverX), % control at 1 uM
Holding throughout (format): binding

Assay [1] concerns the target T1, scanMAX Kinase assay panel (Homo sapiens, UniProt P07949, V804L).
T1 construct: purchased DiscoverX
Conditions: RET (V804L); 1 uM; read-out: Percent Control (%). In outline: (§1)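 Read-out is percent of control, derived from the signal with compound relative to positive and negative controls: (compound − positive)/(negative − positive) × 100. Each enzyme received test drug at 1 uM in DMSO, and values under 35% count as active.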

Assay [2] deals with T2, scanMAX Kinase assay panel (Homo sapiens, UniProt P53667).
T2 construct: purchased DiscoverX
Particulars: LIMK1; 1 uM; read-out: Percent Control (%). In a few lines:
as §1

Assay [3] has as its target T3, scanMAX Kinase assay panel (Homo sapiens, UniProt Q12851).
T3 construct: purchased DiscoverX
T3 sequence (Q12851 1-820): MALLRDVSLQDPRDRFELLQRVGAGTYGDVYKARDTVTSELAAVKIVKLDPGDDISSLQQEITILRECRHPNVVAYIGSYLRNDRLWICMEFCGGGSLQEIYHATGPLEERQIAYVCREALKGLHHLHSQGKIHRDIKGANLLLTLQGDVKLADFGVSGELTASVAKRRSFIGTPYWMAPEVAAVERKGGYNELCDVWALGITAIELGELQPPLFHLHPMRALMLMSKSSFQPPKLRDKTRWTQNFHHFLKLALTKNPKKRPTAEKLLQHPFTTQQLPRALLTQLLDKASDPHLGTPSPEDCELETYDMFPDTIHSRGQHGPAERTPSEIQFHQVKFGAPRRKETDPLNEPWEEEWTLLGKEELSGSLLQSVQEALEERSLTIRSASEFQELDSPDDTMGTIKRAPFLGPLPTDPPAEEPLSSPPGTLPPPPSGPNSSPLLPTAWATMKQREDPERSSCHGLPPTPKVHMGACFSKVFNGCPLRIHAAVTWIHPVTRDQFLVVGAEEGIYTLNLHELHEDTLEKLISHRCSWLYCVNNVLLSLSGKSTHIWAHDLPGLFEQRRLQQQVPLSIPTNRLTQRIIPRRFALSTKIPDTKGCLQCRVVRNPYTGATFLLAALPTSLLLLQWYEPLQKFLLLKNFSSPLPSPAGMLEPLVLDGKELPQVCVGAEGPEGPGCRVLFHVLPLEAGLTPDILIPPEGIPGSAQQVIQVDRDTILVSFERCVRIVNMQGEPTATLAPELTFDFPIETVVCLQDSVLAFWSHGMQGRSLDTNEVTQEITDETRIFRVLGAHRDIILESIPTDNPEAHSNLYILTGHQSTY
Particulars: MAP4K2; 1 uM; read-out: Percent Control (%). In a few lines:
as §1

For assay [4], the target named is T4, scanMAX Kinase assay panel (Homo sapiens, UniProt Q8IY84).
T4 construct: purchased DiscoverX
Particulars: NIM1; 1 uM; read-out: Percent Control (%). In a few lines:
as §1

Assay [5] has as its target T5, scanMAX Kinase assay panel (Homo sapiens, UniProt Q96D53).
T5 construct: purchased DiscoverX
T5 sequence (Q96D53 1-544): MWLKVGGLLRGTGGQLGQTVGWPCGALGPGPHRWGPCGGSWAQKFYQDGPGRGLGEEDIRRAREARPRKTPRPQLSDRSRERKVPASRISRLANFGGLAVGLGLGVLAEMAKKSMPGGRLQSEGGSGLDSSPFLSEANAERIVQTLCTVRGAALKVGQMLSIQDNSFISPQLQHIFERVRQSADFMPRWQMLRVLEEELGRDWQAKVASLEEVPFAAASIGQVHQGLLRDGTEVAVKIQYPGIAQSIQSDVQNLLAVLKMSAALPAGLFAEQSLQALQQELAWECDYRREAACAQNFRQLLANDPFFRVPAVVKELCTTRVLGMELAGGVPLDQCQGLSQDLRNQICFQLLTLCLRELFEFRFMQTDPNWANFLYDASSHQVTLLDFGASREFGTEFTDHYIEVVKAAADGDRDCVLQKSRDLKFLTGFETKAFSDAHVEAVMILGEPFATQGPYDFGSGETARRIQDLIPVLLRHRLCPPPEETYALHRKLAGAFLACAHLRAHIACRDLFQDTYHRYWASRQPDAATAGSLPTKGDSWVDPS
Particulars: ADCK4; 1 uM; read-out: Percent Control (%). In a few lines:
as §1

Assay [6] concerns the target T6, scanMAX Kinase assay panel (Homo sapiens, UniProt Q9HBY8).
T6 construct: purchased DiscoverX
T6 sequence (Q9HBY8 1-367): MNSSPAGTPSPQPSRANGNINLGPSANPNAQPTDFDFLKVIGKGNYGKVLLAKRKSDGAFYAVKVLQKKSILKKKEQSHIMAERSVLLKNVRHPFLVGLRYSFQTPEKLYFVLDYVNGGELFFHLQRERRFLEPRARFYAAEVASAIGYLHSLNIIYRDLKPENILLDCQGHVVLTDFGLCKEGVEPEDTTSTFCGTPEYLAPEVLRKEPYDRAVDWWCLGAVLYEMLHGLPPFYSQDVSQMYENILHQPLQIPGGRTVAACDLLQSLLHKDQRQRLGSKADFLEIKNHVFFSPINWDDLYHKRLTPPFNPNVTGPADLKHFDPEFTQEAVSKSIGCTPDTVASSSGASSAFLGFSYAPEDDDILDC
Particulars: SGK2; 1 uM; read-out: Percent Control (%). In outline:
as §1

T1 sequence (P07949 29-1114 V804L): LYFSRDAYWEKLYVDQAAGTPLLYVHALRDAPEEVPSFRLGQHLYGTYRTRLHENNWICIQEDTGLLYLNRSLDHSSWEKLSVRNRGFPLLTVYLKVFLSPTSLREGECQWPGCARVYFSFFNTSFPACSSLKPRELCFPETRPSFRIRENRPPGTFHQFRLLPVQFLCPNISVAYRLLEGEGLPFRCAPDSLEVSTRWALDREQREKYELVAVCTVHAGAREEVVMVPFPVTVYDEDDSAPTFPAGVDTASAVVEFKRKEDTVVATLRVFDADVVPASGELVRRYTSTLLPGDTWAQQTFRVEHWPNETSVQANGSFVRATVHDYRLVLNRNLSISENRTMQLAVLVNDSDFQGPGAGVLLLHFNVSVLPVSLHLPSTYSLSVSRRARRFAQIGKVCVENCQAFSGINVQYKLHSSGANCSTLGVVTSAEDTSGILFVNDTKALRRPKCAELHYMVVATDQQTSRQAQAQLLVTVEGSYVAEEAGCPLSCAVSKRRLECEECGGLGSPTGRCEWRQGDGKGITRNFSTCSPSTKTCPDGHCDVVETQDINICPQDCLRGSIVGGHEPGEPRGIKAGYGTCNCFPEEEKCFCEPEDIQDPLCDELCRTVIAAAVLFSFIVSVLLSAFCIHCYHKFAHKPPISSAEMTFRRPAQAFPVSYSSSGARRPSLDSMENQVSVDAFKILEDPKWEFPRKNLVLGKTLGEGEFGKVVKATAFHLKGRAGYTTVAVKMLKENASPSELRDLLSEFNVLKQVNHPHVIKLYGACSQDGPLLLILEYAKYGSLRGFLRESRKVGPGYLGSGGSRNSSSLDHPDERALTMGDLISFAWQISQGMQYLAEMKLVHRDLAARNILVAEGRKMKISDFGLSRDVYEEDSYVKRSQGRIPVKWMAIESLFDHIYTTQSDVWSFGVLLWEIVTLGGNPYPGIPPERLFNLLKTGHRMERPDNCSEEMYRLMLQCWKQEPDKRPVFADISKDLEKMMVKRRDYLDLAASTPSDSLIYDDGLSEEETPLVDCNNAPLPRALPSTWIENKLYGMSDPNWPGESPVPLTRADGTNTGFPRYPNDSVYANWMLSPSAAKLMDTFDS
T2 sequence (P53667 whole entry): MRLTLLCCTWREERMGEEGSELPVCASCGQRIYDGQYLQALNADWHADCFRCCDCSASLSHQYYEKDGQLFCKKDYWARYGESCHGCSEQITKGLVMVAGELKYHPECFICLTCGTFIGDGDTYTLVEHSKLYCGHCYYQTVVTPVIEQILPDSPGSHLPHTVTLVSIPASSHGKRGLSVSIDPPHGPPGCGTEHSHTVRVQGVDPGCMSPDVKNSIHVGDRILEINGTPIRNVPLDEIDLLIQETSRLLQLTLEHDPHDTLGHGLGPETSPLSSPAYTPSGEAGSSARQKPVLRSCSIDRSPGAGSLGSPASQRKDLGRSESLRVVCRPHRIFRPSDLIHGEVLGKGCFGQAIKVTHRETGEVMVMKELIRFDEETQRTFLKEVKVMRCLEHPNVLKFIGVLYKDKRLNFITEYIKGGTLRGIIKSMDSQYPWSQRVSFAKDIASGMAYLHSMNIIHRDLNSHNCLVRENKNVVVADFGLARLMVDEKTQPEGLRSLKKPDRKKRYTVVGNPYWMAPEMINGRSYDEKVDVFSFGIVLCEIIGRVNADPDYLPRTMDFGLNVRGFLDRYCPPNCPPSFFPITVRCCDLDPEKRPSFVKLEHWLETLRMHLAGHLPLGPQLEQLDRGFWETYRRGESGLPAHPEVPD
T4 sequence (Q8IY84 whole entry): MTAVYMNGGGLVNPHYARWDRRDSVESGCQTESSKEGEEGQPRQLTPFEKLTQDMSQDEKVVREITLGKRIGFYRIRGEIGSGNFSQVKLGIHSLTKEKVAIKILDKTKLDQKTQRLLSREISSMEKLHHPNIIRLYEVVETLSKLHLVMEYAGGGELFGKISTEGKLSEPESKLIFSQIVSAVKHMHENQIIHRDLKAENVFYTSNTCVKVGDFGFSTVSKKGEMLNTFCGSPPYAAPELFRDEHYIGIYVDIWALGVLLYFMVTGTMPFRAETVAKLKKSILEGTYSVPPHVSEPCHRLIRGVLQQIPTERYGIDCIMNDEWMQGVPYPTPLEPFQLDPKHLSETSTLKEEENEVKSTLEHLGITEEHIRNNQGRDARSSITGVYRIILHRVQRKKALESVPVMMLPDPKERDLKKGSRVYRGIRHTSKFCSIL

For `Cc1ccc(C(=O)Nc2ccc(CN3CCN(C)CC3)c(C(F)(F)F)c2)cc1C#Cc1cnc2c(Nc3cnn(C)c3)cccn12` [Example 1, 4-methyl-3-((8-((1-methyl-1H-pyrazol-4-yl)amino)imidazo[1,2-a]pyridin-3-yl)ethynyl)-N-(4-((4-methylpiperazin-1-yl)methyl)-3-(trifluoromethyl)phenyl)benzamide], the remaining binding at 1 µM came to 0% in assay [1]; 4% in assay [2]; 1% in assay [3]; 92% in assay [4]; 88% in assay [5]; 84% in assay [6].

On to `Cc1cn(-c2cc(NC(=O)c3ccc(C)c(C#Cc4cnc5c(Nc6cnn(C)c6)cccn45)c3)cc(C(F)(F)F)c2)cn1` [Example 12, 4-methyl-N-(3-(4-methyl-1H-imidazol-1-yl)-5-(trifluoromethyl)phenyl)-3-((8-((1-methyl-1H-pyrazol-4-yl)amino)imidazo[1,2-a]pyridin-3-yl)ethynyl)benzamide], for which the remaining binding at 1 µM in assay [1] was 2%; in assay [2] it was 38%; in assay [3], 98%; in assay [4], 100%; in assay [5], 95%; in assay [6], 100%.

As to `Cc1ccc(NC(=O)C2(C(=O)Nc3ccc(F)cc3)CC2)cc1C#Cc1cnc2c(Nc3cnn(C(C)C)c3)cccn12` [Example 78], the remaining binding at 1 µM in assay [1], in assay [2], in assay [3], in assay [4], in assay [5] and in assay [6] was 100% each time.
